Reference: ChEMBL document CHEMBL5665443, “Enzyme Inhibitor Single Concentration assay results for EUbOPEN Chemogenomics Library” (2024)
Where a SMILES comes first, the peptide text is derived from it. [ ]: non-standard residue; d: D form. Arg(Me) = CNC(=N)NCCC[C@H](N)C(=O)O; d3Pal = N[C@H](Cc1cccnc1)C(=O)O; azaGly = NNC(=O)O

Experiments:
[1] = target: T1, Adenine DNA glycosylase (Homo sapiens) (UniProt Q9UIF7); details: Hit No;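 further: human MUTYH activity read as 594 nm fluorescence from cleavage and release of a quenched DNA duplex, coupled with APE1 for strand incision, lower signal meaning inhibition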
T1 sequence (whole entry): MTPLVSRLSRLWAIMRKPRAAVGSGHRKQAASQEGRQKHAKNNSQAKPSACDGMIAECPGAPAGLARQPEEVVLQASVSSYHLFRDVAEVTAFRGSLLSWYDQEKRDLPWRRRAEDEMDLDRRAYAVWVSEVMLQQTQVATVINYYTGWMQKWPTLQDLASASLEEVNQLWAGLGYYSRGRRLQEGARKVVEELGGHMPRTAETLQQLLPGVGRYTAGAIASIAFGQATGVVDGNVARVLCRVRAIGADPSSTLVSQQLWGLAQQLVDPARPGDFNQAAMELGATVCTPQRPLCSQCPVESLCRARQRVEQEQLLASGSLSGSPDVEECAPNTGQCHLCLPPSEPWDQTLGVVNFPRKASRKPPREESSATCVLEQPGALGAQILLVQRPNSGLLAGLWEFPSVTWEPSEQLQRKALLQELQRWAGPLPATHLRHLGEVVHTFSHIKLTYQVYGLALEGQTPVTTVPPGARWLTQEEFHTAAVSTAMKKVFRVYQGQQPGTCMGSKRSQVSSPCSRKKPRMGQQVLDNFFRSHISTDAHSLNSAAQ
Description: Inhibition of MUTYH by quantifying inhibition of MUTYH-mediated cleavage and dissociation of quenched duplex DNA oligonucleotides, measured as fluorescence at 594 nm. To generate a functional strand incision and increase turn-over this assay is coupled to APE1.

[2] = target: Endonuclease 8-like 1 (Homo sapiens) (UniProt Q96FI4); details: Hit No;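 further: fluorescence at 594 nm from quenched duplex DNA oligonucleotides released by NEIL1 cleavage and strand separation, reported as reduction of this enzyme activity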
Sequence of Endonuclease 8-like 1 (Homo sapiens) (Q96FI4 whole entry): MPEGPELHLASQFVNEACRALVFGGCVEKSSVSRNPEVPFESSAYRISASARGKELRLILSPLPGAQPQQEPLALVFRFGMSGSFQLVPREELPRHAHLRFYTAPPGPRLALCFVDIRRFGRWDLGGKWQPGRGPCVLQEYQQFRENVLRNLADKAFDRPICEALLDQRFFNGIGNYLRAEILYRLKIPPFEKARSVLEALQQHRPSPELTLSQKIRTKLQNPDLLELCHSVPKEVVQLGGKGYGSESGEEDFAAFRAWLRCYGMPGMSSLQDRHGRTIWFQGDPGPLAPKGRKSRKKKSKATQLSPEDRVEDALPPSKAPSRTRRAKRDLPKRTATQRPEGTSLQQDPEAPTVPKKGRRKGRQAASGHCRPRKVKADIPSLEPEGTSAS
Description: Inhibition of NEIL1 by quantifying inhibition of NEIL1-mediated cleavage and dissociation of quenched duplex DNA oligonucleotides, measured as fluorescence at 594 nm.

[3] = target: T2, Endonuclease III-like protein 1 (Homo sapiens) (UniProt P78549); details: Hit No;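 further: enzyme assay tracking NTHL1 cutting and release of a quenched double-stranded DNA oligo substrate, read as fluorescence at 594 nm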
T2 sequence (whole entry): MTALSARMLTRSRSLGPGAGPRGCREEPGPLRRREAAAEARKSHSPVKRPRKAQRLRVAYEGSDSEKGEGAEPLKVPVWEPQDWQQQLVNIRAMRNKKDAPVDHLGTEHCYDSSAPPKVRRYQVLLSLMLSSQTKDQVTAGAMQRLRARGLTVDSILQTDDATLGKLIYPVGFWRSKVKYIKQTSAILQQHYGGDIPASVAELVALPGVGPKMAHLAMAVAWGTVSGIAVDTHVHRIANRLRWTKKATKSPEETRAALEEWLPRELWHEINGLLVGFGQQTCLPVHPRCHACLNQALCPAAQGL
Description: Inhibition of NTHL1 by quantifying inhibition of NTHL1-mediated cleavage and dissociation of quenched duplex DNA oligonucleotides, measured as fluorescence at 594 nm.

[4] = target: G/T mismatch-specific thymine DNA glycosylase (Homo sapiens) (UniProt Q13569); details: Hit No;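 further: human TDG cleavage of quenched duplex DNA oligonucleotides coupled to APE1, strand release read as fluorescence at 594 nm, inhibition of TDG activity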
Sequence of G/T mismatch-specific thymine DNA glycosylase (Homo sapiens) (Q13569 whole entry): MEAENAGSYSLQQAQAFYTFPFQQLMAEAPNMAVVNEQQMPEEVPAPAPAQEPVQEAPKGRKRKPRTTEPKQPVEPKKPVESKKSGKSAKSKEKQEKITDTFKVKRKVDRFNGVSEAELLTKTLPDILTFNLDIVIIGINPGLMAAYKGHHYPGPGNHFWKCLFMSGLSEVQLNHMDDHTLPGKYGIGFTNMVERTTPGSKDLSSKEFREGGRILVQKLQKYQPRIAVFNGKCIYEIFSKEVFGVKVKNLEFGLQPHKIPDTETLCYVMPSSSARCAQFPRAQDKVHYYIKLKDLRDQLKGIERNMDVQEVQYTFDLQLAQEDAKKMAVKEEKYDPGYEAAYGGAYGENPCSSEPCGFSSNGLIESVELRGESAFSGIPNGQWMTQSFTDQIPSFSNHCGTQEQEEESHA
Description: Inhibition of TDG by quantifying inhibition of TDG-mediated cleavage and dissociation of quenched duplex DNA oligonucleotides, measured as fluorescence at 594 nm. To generate a functional strand incision and increase turn-over this assay is coupled to APE1.

[5] = target: N-glycosylase/DNA lyase (Homo sapiens) (UniProt O15527);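 further: OGG1 cleavage of a quenched duplex DNA oligonucleotide, coupled to APE1 for strand incision, read as fluorescence at 594 nm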
Sequence of N-glycosylase/DNA lyase (Homo sapiens) (O15527 whole entry, the tested form may be a part): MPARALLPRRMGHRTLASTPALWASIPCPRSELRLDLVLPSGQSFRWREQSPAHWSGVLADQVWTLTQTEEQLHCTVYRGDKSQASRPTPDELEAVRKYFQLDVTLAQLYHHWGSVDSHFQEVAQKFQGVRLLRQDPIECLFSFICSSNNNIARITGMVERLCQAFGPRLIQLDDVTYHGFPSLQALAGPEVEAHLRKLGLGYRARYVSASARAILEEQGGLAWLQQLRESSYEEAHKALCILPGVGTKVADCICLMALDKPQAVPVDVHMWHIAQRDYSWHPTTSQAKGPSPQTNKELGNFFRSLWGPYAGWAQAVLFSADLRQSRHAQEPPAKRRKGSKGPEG
Description: Inhibition of OGG1 by quantifying inhibition of OGG1-mediated cleavage and dissociation of quenched duplex DNA oligonucleotides, measured as fluorescence at 594 nm. To generate a functional strand incision and increase turn-over this assay is coupled to APE1.

[6] = target: Methyl-CpG-binding domain protein 4 (Homo sapiens) (UniProt O95243); details: Hit No;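 further: MBD4 activity read as fluorescence at 594 nm from cleavage and release of a quenched duplex DNA oligonucleotide, with APE1 coupled to incise the strand and raise turnover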
Sequence of Methyl-CpG-binding domain protein 4 (Homo sapiens) (O95243 whole entry, the tested form may be a part): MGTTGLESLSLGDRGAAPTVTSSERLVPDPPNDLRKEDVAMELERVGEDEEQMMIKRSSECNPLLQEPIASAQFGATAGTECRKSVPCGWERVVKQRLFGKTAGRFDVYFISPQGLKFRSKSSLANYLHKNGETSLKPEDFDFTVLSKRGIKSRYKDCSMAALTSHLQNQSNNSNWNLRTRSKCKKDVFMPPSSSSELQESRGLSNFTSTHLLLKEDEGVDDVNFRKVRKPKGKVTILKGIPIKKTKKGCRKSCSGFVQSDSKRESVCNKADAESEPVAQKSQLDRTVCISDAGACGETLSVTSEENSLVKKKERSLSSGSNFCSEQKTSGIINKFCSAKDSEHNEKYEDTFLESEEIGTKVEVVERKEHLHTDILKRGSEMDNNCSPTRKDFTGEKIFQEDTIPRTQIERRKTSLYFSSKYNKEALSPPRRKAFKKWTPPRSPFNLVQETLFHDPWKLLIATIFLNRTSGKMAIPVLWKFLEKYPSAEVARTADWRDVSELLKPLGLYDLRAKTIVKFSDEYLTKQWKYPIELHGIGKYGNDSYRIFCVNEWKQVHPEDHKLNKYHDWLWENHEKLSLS
Description: Inhibition of MBD4 by quantifying inhibition of MBD4-mediated cleavage and dissociation of quenched duplex DNA oligonucleotides, measured as fluorescence at 594 nm. To generate a functional strand incision and increase turn-over this assay is coupled to APE1.

[7] = target: Uracil-DNA glycosylase (Homo sapiens) (UniProt P13051); details: Hit No;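 further: UNG excision on a quenched double-stranded DNA oligo probe, with APE1 added for strand incision and turnover, read as fluorescence at 594 nm as strands separate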
Sequence of Uracil-DNA glycosylase (Homo sapiens) (P13051 whole entry): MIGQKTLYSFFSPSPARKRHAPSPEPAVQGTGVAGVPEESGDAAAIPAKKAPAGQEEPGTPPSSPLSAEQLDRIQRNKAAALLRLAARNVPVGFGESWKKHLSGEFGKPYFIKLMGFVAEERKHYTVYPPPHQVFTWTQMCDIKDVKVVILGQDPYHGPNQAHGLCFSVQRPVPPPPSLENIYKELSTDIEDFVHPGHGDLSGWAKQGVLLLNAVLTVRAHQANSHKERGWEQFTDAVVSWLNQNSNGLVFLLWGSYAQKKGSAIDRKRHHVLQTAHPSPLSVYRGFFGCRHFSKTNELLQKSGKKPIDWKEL
Description: Inhibition of UNG by quantifying inhibition of UNG-mediated cleavage and dissociation of quenched duplex DNA oligonucleotides, measured as fluorescence at 594 nm. To generate a functional strand incision and increase turn-over this assay is coupled to APE1.

[8] = target: T3, Endonuclease 8-like 2 (Homo sapiens) (UniProt Q969S2); details: Hit No;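 further: fluorescence at 594 nm reports NEIL2 cutting and release of a quenched double-stranded DNA oligo substrate, reduced signal read as inhibition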
T3 sequence (whole entry): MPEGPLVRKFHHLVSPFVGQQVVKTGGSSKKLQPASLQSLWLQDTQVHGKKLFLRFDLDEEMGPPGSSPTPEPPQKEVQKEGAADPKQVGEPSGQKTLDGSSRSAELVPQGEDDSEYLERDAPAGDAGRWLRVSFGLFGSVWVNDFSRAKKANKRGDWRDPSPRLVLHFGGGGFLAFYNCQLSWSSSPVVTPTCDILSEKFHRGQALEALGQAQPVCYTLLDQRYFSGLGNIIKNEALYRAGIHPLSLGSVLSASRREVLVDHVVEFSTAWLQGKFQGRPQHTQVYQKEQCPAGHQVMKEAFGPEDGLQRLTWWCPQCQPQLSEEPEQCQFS
Description: Inhibition of NEIL2 by quantifying inhibition of NEIL2-mediated cleavage and dissociation of quenched duplex DNA oligonucleotides, measured as fluorescence at 594 nm.

[9] = target: T4, Single-strand selective monofunctional uracil DNA glycosylase (Homo sapiens) (UniProt Q53HV7); details: Hit No;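 further: enzymatic SMUG1 assay coupled with APE1, reading fluorescence at 594 nm released when a quenched double-stranded DNA oligonucleotide substrate is cleaved and separated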
T4 sequence (whole entry): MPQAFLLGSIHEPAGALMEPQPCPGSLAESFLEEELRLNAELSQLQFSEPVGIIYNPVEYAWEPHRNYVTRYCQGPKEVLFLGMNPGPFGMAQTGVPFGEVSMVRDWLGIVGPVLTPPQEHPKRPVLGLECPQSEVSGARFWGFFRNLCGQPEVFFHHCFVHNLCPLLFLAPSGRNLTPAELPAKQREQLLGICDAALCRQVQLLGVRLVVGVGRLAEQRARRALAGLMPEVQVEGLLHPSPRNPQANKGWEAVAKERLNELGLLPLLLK
Description: Inhibition of SMUG1 by quantifying inhibition of SMUG1-mediated cleavage and dissociation of quenched duplex DNA oligonucleotides, measured as fluorescence at 594 nm. To generate a functional strand incision and increase turn-over this assay is coupled to APE1.

[10] = Compound Concentration 10.0 uM, Hit Yes
[11] = Compound Concentration 1.0 uM, Hit No
[12] = Compound Concentration 10.0 uM, Hit No

inhibition ([1]; Compound Concentration 10.0 uM) [%]	inhibition ([2]; Compound Concentration 10.0 uM) [%]	inhibition ([3]; Compound Concentration 10.0 uM) [%]	inhibition ([4]; Compound Concentration 10.0 uM) [%]	inhibition [5, 10] [%]	inhibition ([6]; Compound Concentration 10.0 uM) [%]	inhibition ([7]; Compound Concentration 10.0 uM) [%]	inhibition ([8]; Compound Concentration 10.0 uM) [%]	inhibition ([9]; Compound Concentration 10.0 uM) [%]	inhibition ([1]; Compound Concentration 1.0 uM) [%]	inhibition ([2]; Compound Concentration 1.0 uM) [%]	inhibition ([3]; Compound Concentration 1.0 uM) [%]	inhibition ([4]; Compound Concentration 1.0 uM) [%]	inhibition [5, 11] [%]	inhibition ([6]; Compound Concentration 1.0 uM) [%]	inhibition ([7]; Compound Concentration 1.0 uM) [%]	inhibition ([8]; Compound Concentration 1.0 uM) [%]	inhibition ([9]; Compound Concentration 1.0 uM) [%]	inhibition [5, 12] [%]	SMILES
29.3	0.619	17.8	98.9	91.8	67.1	6.35	3.34	47.4	–	–	–	–	–	–	–	–	–	–	Cc1oc2ccccc2c1Cc1cc(I)c(OCC(=O)O)c(I)c1
–	–	–	–	–	–	–	–	–	2.62	-5.15	-0.61	53.2	7.47	13.8	6.29	-5.15	34.2	–	N#Cc1cnc(Nc2cc(NC[C@H]3CNCCO3)c(C(F)(F)F)cn2)cn1
14.3	-6.47	–	52.1	–	29	-0.0214	-3.27	19.3	23.6	-7.26	-7.86	59.1	10.4	76.1	7.66	-0.489	19.9	–	NC1(c2ccc(-c3nc4c(O)ccnn4c3-c3ccccc3)cc2)CCC1
-4.47	-2.26	-7.2	47.5	–	49.5	-1.52	-2.53	5.8	–	–	–	–	–	–	–	–	–	9.87	CC1(C)C(=O)C(C)(C)c2cc(C(=O)Nc3ccc(C(=O)O)cc3)ccc21
-0.706	-0.139	0.685	62.4	–	60.6	7.1	-2.53	25.5	–	–	–	–	–	–	–	–	–	9.57	CNC(=N)NCCC[C@H](NC(=O)[C@H](CC(C)C)NC(=O)NNC(=O)[C@H](Cc1ccccc1)NC(=O)[C@H](CO)NC(=O)[C@H](CC(N)=O)NC(=O)[C@@H](Cc1cccnc1)NC(=O)[C@H](N)Cc1ccc(O)cc1)C(=O)NCC(N)=O (H-[dY][d3Pal]NSF[azaGly]L[Arg(Me)]G-NH2)
30.1	7.67	1.48	45.9	–	-2.05	3.81	1.31	25.7	–	–	–	–	–	–	–	–	–	13.2	O=C(O)c1ccc(-c2coc3ncc(-c4ccccc4)cc23)cc1Cl
4.92	-6.65	-3.92	72.3	101	69	3.71	1.55	22.1	–	–	–	–	–	–	–	–	–	–	CC(C)(C[C@H]1CN(S(=O)(=O)c2cccc(C(F)(F)F)c2)c2cc(-c3cc(F)cc(OC(F)F)c3)ccc2O1)C(=O)O
5.63	-6.95	3.97	47.2	–	67.5	3.82	-3.29	9.42	–	–	–	–	–	–	–	–	–	6.08	COc1ccc2c(c1)O[C@H](c1ccc(OC)c(OC)c1)C[C@@H]2NC(=O)C1(c2ccc3c(c2)OC(F)(F)O3)CC1
-1.18	-5.19	0.755	45.3	–	25.9	2.48	3.79	15.8	–	–	–	–	–	–	–	–	–	0.815	CC(C)(O)[C@H](F)CN1Cc2cc(NC(=O)c3cnn4cccnc34)c(N3CCOCC3)cc2C1=O
10.5	4.86	-6.55	46.8	–	79.8	7.63	22.2	16.1	–	–	–	–	–	–	–	–	–	7.46	CN(C)[C@@H]1CCN(c2cc(-c3ccccc3)nc3ccnn23)C1
25.7	4.89	10.6	57.9	–	2.7	7.32	12.6	18.4	–	–	–	–	–	–	–	–	–	-7.95	C[C@]1(O)C[C@@H](c2nc(-c3ccc4ccc(-c5ccccc5)nc4c3)c3c(N)nccn32)C1
11.4	-4.62	2.18	97.5	–	-3.96	-6.1	-9.73	17.2	–	–	–	–	–	–	–	–	–	6.06	O=C(O)c1ccc2c(c1)nc(Nc1cccc(Cl)c1)c1ccncc12
2.57	-4.83	2	54	106	61.5	8.18	5.89	33.2	–	–	–	–	–	–	–	–	–	–	O=C(O)Cc1cccc(OCCCN(Cc2cccc(C(F)(F)F)c2Cl)CC(c2ccccc2)c2ccccc2)c1
6.45	2.28	5.29	69.8	–	61.8	5.95	-0.489	12.7	–	–	–	–	–	–	–	–	–	12.6	CC(=O)Nc1c(F)cc(C(=O)N[C@H]2CC[C@H](O)CC2)cc1O[C@@H](C)c1ccccc1
7	-7.41	-1.95	98.5	–	69.4	5.13	-1.25	18.3	–	–	–	–	–	–	–	–	–	9.77	CCc1ccc(N(CC(C)C)S(=O)(=O)c2ccc(OCC3CCOCC3)c(CO)c2)cc1
–	–	–	–	–	–	–	–	–	6.74	-2.11	-6.89	35.6	4.54	12.7	-5.91	6.16	-5.72	–	Cc1cccc(-c2[nH]c(CNc3ccccc3F)nc2-c2ccc3ncnn3c2)n1
–	–	–	–	–	–	–	–	–	-1.15	2.52	2.18	29.2	3.08	4.16	3.77	0.505	19.5	–	Nc1ncc2c(n1)-c1c([nH]c3ccc(C4CC4)cc13)CCCC2
15.4	-3.17	-2.6	55.2	–	75	7.59	-2.53	23	–	–	–	–	–	–	–	–	–	16.2	c1ccc(C2CCN(c3cnc4c(N5CCOCC5)nccn34)CC2)cc1
0.66	-5.29	12.5	100	103	58.8	4.8	-6.36	19.5	–	–	–	–	–	–	–	–	–	–	CC(C)c1onc(-c2c(Cl)cccc2Cl)c1COc1ccc(/C=C/c2cccc(C(=O)O)c2)c(Cl)c1
18.2	-5.89	-6.88	69.6	–	73.2	7.75	8.19	17.6	–	–	–	–	–	–	–	–	–	19.3	C[C@@H]1C[C@H](C)CN(c2ncc(Cl)c(Nc3ccc4c(c3)cc(OC(C)(C)C(=O)O)c(=O)n4C)n2)C1

SMILES	inhibition ([1]; Compound Concentration 10.0 uM) [%]	inhibition ([2]; Compound Concentration 10.0 uM) [%]	inhibition ([3]; Compound Concentration 10.0 uM) [%]	inhibition ([4]; Compound Concentration 10.0 uM) [%]	inhibition [5, 10] [%]	inhibition ([6]; Compound Concentration 10.0 uM) [%]	inhibition ([7]; Compound Concentration 10.0 uM) [%]	inhibition ([8]; Compound Concentration 10.0 uM) [%]	inhibition ([9]; Compound Concentration 10.0 uM) [%]	inhibition ([1]; Compound Concentration 1.0 uM) [%]	inhibition ([2]; Compound Concentration 1.0 uM) [%]	inhibition ([3]; Compound Concentration 1.0 uM) [%]	inhibition ([4]; Compound Concentration 1.0 uM) [%]	inhibition [5, 11] [%]	inhibition ([6]; Compound Concentration 1.0 uM) [%]	inhibition ([7]; Compound Concentration 1.0 uM) [%]	inhibition ([8]; Compound Concentration 1.0 uM) [%]	inhibition ([9]; Compound Concentration 1.0 uM) [%]	inhibition [5, 12] [%]
CCOP(=O)(OCC)C(=Cc1cc(C(C)(C)C)c(O)c(C(C)(C)C)c1)P(=O)(OCC)OCC	14.5	-3.17	12.5	58.6	–	49.5	-4.58	11.2	3.52	–	–	–	–	–	–	–	–	–	-1.84
